In patent publication US11124489B2, “EPAC antagonists” (priority 2017, dated 2021):
Read-outs that look alike come from different tables or passages of the source.

How the values were obtained:
EPAC1 [1] = target: T1, EPAC1 (Homo sapiens (Human), UniProt O95398); experiment: biochemical
EPAC1 [2] = target: T1, EPAC1; conditions: for IC50: read-out: Rap 1b-bGDP EPAC1 IC50
EPAC2 [3] = target: T2, EPAC2 (Mus musculus (Mouse), UniProt Q9EQZ6); conditions: for Relative GEF activity, EPAC2-mediated Rap1b-bGDP exchange: in the presence of 20 μM cAMP, figure; for IC50: read-out: Rap1b-bGDP EPAC2 IC50, apparent IC50, EPAC2 GEF activity, 20 μM cAMP
Experimental: (§3) In Vitro Evaluation of EPAC2 Inhibition.
(§4) In vitro EPAC GEF activity was acquired as previously described (Zhu et al., Sci. Rep. (2015) 5:9344). Briefly, the assay was performed using 500 nM Rap1b-BODIPY-GDP and 200 nM EPAC proteins in buffer containing 50 mM Tris-HCl pH 7.5, 50 mM NaCl, 5 mM MgCl2, 1 mM DTT, 50 mM GDP and the indicated concentrations of test compounds at room temperature using half-area 96-well plates (Corning Costar 3915). The exchange reaction was monitored using a Spectramax M2 Plate Reader (Molecular Devices) with the excitation/emission wavelengths set at 485/515 nm. The reaction rate constant (kobs) was determined by globally fitting the experimental data to a single exponential equation.

EPAC2 [4] = target: T2, EPAC2; experiment: biochemical; conditions: Rap1b-bGDP EPAC2 IC50, apparent IC50, EPAC2 GEF activity, 20 μM cAMP
Experimental: as §3, §4

[5] = mice, single IP injection 10 mg/kg
Experimental: In vivo pharmacokinetic studies were performed in four week old female C57BL6/N mice.

R. australia [6] = conditions: 10 mg/kg IP daily, lethal dose of R. australia
Experimental: WT C57BL/6 mice were treated with vehicle or ESI-09 (10 mg/kg, IP) daily. Five days after the treatment, mice were challenged with lethal dose of R. australia and continued ESI-09 daily treatment.

leptin = conditions: wild-type mice, 50 mg/kg oral gavage for 3 weeks, relative to vehicle
Experimental: (§1) To explore the feasibility of increasing leptin sensitivity by targeting Epac1 using small molecules, organotypic brain slice cultures were prepared from 11-day old wild-type C57BL/6 mice. After 7 days ex vivo culture, treatment of the brain tissue with the Epac specific antagonist ESI-09 led to an enhanced pSTAT3 Y705 level both at the basal state and in response to leptin stimulation. […] These pharmacological data are in agreement with results obtained using Epac1 KO mice and further confirm that inhibition of Epac1 enhances leptin signaling in the hypothalamus. To further investigate the therapeutic potential of this small molecule, wild-type mice were with ESI-09 (50 mg/kg) or vehicle (corn oil) by oral gavage for 3 weeks.

pSTAT3 Y705 = conditions: brain slices, basal state and in response to leptin stimulation
Experimental: as §1

R. australia [7] = conditions: HUVEC cells, vs vehicle
[8] = tested on: OVA-specific IgG1 antibodies; conditions: mouse, in vivo
EPAC1 [9] = target: T1, EPAC1; conditions: read-out: IC50 in inhibiting EPAC1; reference compound, Zhu et al., Sci. Rep. (2015); cited from earlier work
EPAC1 [10] = target: T1, EPAC1; conditions: at 100 μM
From the text: (§2) Given the physiological and pathophysiological significance of EPAC proteins, developing pharmacological EPAC modulators has attracted more and more attention. Most EPAC agonists are derivatives of cAMP, while non-cyclic nucleotide ligands usually display EPAC inhibitory activities. Cheng group developed a sensitive and robust fluorescence-based high throughput (HTS) assay, (Tsalkova et al., PloS one, (2012) 7:e30441) and discovered a series of non-cyclic nucleotide EPAC inhibitors (Tsalkova et al., Proc. Natl. Acad. Sci. U.S.A., (2012) 109:18613-18).

EPAC2 [11] = conditions: read-out: IC50 against EPAC2
From the text: as §2

[12] = Rap 1b-bGDP EPAC1 IC50, apparent IC50, EPAC1 GEF activity, 20 μM cAMP
[13] = apparent IC50, EPAC1 GEF activity, 20 μM cAMP

| SMILES | IC50 (EPAC1 [1]; Rap 1b-bGDP EPAC1 IC50) [µM] | IC50 (EPAC1 [1]; [12]) [µM] | IC50 (EPAC2 [4]) [µM] | further results |
| --- | --- | --- | --- | --- |
| CC(C)(C)c1ccc(-c2cc(C(=O)C(C#N)=NNc3cccc(Cl)c3)no2)cc1 [Compound 7, N-(3-Chlorophenyl)-2-(5-(4-(tert-butyl)phenyl)isoxazol-3-yl)-2-oxoacetohydrazonoyl cyanide] | 8.6 | – | – | – |
| CC(C)(C)c1ccc(-c2cc(C(=O)C(C#N)=NNc3ccc(C(F)(F)F)c(Cl)c3)no2)cc1 [Compound 9, N-(3-Chloro-4-(trifluoromethyl)phenyl)-2-oxo-2-(5-(4-(tert-butyl)phenyl)isoxazol-3-yl)acetohydrazonoyl cyanide] | – | 9 ± 3.9 | – | – |
| CC(C)(C)c1ccc(-c2cc(C(=O)C(C#N)=NNc3ccc(Cl)c(C(F)(F)F)c3)no2)cc1 [Compound 10, N-(4-Chloro-3-(trifluoromethyl)phenyl)-2-oxo-2-(5-(4-(tert-butyl)phenyl)isoxazol-3-yl)acetohydrazonoyl cyanide] | – | 7.3 | 2.2 ± 0.3 | Rap 1b-bGDP EPAC1 IC50 (EPAC1 [2]; [13]): low micromolar range; Relative GEF activity, EPAC2-mediated Rap1b-bGDP exchange (EPAC2 [3]): Dose-dependent inhibition |
| CC(C)(C)c1ccc(-c2cc(C(=O)C(C#N)=NNc3cc(C(F)(F)F)cc(C(F)(F)F)c3)no2)cc1 [Compound 11, N-(3,5-Bis(trifluoromethyl)phenyl)-2-(5-(4-(tert-butyl)phenyl)isoxazol-3-yl)-2-oxoacetohydrazonoyl cyanide] | – | 11.9 ± 6 | – | – |
| N#CC(=NNc1cc(Cl)cc(C(F)(F)F)c1)C(=O)c1cc(-c2ccccc2)on1 [Compound 13, N′-(3-Chloro-5-(trifluoromethyl)phenyl)-2-oxo-2-(5-phenylisoxazol-3 yl)acetohydrazonoyl cyanide] | 9.5 ± 1.2 | – | – | – |
| N#CC(=NNc1cc(C(F)(F)F)cc(C(F)(F)F)c1)C(=O)c1cc(-c2ccccc2)on1 [Compound 15, N-(3,5-Bis(trifluoromethyl)phenyl)-2-oxo-2-(5-phenylisoxazol-3-yl)acetohydrazonoyl cyanide] | 7.2 ± 0.7 | – | 3.3 ± 0.8 | – |
| N#CC(NNc1ccc(C(F)(F)F)c(Cl)c1)C(=O)c1cc(-c2ccccc2)on1 (stereo not shown) [Compound 17b] | – | – | – | Rap 1b-bGDP EPAC1 IC50 (EPAC1 [2]): low micromolar range; IC50 (EPAC1 [2]): 5.1 ± 0.3 µM |
| N#CC(=NNc1ccc(Cl)c(C(F)(F)F)c1)C(=O)c1cc(-c2ccc(Cl)cc2)on1 [Compound 20, N-(4-Chloro-3-(trifluoromethyl)phenyl)-2-oxo-2-(5-(4-chlorophenyl)isoxazol-3-yl)acetohydrazonoyl cyanide] | 7.8 ± 2.1 | – | – | – |
| COc1ccc(-c2cc(C(=O)C(C#N)=NNc3cccc(Cl)c3)no2)cc1 [Compound 22, N-(3-Chlorophenyl)-2-(5-(4-methoxyphenyl)isoxazol-3-yl)-2-oxoacetohydrazonoyl cyanide] | 11.4 ± 2.8 | – | – | Relative GEF activity, EPAC1-mediated Rap1b-bGDP exchange (EPAC1 [2]): Dose-dependent inhibition |
| COc1ccc(-c2cc(C(=O)C(C#N)=NNc3ccc(Cl)c(C(F)(F)F)c3)no2)cc1 [Compound 23, N-(4-Chloro-3-(trifluoromethyl)phenyl)-2-oxo-2-(5-(4-methoxyphenyl)isoxazol-3-yl)acetohydrazonoyl cyanide] | – | < 8 | 4.5 ± 1 | – |
| N#CC(=NNc1cc(Cl)cc(C(F)(F)F)c1)C(=O)c1cc(-c2ccco2)on1 [Compound 26, N-(3-Chloro-5-(trifluoromethyl)phenyl)-2-(5-(furan-2-yl)isoxazol-3-yl)-2-oxoacetohydrazonoyl cyanide] | 3.6 ± 0.2 | – | 2.2 ± 0.3 | Rap 1b-bGDP EPAC1 IC50 (EPAC1 [2]): low micromolar range; Relative GEF activity, EPAC1-mediated Rap1b-bGDP exchange (EPAC1 [2]): Dose-dependent inhibition |
| N#CC(=NNc1ccc(Cl)c(C(F)(F)F)c1)C(=O)c1cc(-c2ccco2)on1 [Compound 27, N-(4-Chloro-3-(trifluoromethyl)phenyl)-2-(5-(furan-2-yl)isoxazol-3-yl)-2-oxoacetohydrazonoyl cyanide] | – | 4.2 ± 0.9 | 2.3 ± 0.2 | Relative GEF activity, EPAC2-mediated Rap1b-bGDP exchange (EPAC2 [3]): Dose-dependent inhibition |
| N#CC(=NNc1cccc(Cl)c1)C(=O)c1noc2ccccc12 [Compound 30, 2-(Benzo[d]isoxazol-3-yl)-N-(3-chlorophenyl)-2-oxoacetohydrazonoyl cyanide] | 13.2 | – | – | – |
| N#CC(=NNc1cc(Cl)cc(C(F)(F)F)c1)C(=O)c1noc2ccccc12 [Compound 31, 2-(Benzo[d]isoxazol-3-yl)-N-(3-chloro-5-(trifluoromethyl)phenyl)-2-oxoacetohydrazonoyl cyanide] | – | 4.6 ± 0.8 | 2.2 ± 0.2 | – |
| N#CC(=NNc1ccc(C(F)(F)F)c(Cl)c1)C(=O)c1noc2ccccc12 [Compound 32, 2-(Benzo[d]isoxazol-3-yl)-N-(3-chloro-4-(trifluoromethyl)phenyl)-2-oxoacetohydrazonoyl cyanide] | – | 3 ± 0.3 | 2.2 ± 0.4 | Rap 1b-bGDP EPAC1 IC50 (EPAC1 [2]; [13]): low micromolar range |
| N#CC(=NNc1ccc(Cl)c(C(F)(F)F)c1)C(=O)c1noc2ccccc12 [Compound 33, 2-(Benzo[d]isoxazol-3-yl)-N-(4-chloro-3-(trifluoromethyl)phenyl)-2-oxoacetohydrazonoyl cyanide] | – | 2.7 ± 0.3 | 1.9 | Rap 1b-bGDP EPAC1 IC50 (EPAC1 [2]; [13]): low micromolar range; Relative GEF activity, EPAC1-mediated Rap1b-bGDP exchange (EPAC1 [2]; in the presence of 20 μM cAMP, figure): Dose-dependent inhibition; Relative GEF activity, EPAC2-mediated Rap1b-bGDP exchange (EPAC2 [3]): Dose-dependent inhibition |
| N#CC(=NNc1cc(F)cc(Cl)c1)C(=O)c1noc2ccccc12 [Compound 34, 2-(Benzo[d]isoxazol-3-yl)-N-(3-chloro-5-fluorophenyl)-2-oxoacetohydrazonoyl cyanide] | 18.9 ± 4.9 | – | – | – |
| N#CC(=NNc1ccc(F)c(Cl)c1)C(=O)c1noc2ccccc12 [Compound 35, 2-(Benzo[d]isoxazol-3-yl)-N-(3-chloro-4-fluorophenyl)-2-oxoacetohydrazonoyl cyanide] | 8.5 ± 3.5 | – | – | – |
| N#CC(=NNc1cc(C(F)(F)F)cc(C(F)(F)F)c1)C(=O)c1noc2ccccc12 [Compound 36, 2-(Benzo[d]isoxazol-3-yl)-N-(3,5-bis(trifluoromethyl)phenyl)-2-oxoacetohydrazonoyl cyanide] | – | 6.7 ± 0.7 | – | – |
| CC(C)(C)c1cc(C(=O)/C(C#N)=N/Nc2cccc(Cl)c2)no1 [ESI-09] | – | – | – | half-life [5]: 3.5 h; maximal blood level [5]: 42,520 ng/ml; time of maximal blood level [5]: 0.5 h; share of treatment group showing sign of sickness (R. australia [6]): 10%; Plasma leptin (leptin): significantly reduced; pSTAT3 Y705 level (pSTAT3 Y705): enhanced; Relative GEF activity, EPAC1-mediated Rap1b-bGDP exchange (EPAC1 [2]): Dose-dependent inhibition; IC50 (EPAC1 [2]): 10.8 ± 1.6 µM; fold more potent on EPAC2 inhibition than on EPAC1 (EPAC2 [3]; EPAC2 vs EPAC1): 2.5 fold; Relative GEF activity, EPAC2-mediated Rap1b-bGDP exchange (EPAC2 [3]): Dose-dependent inhibition; IC50 (EPAC2 [3]): 4.4 µM; number of intracellular R. australia (R. australia [7]): dramatically reduced; level of serum OVA-specific IgG1 antibodies [8]: significantly higher; IC50 (EPAC1 [9]): 10.8 µM |
| Cc1cc(C)c(Nc2ccc(Cl)c(C(F)(F)F)c2)c(C)c1 [MAY0132] | – | – | – | inhibition against EPAC1 (EPAC1 [10]): no significant inhibition; IC50 (EPAC2 [11]): 0.4 µM |
| N#C/C(=N\Nc1cc(Cl)cc(Cl)c1)C(=O)c1ccc(Cl)cc1 [ZL0491, (E)-2-(4-chlorophenyl)-N-(3,5-dichlorophenyl)-2-oxoacetohydrazonoyl cyanide] | – | > 300 | – | – |
| N#C/C(=N\Nc1cc(Cl)cc(Cl)c1)C(=O)c1cccc(Cl)c1 [ZL0546, (E)-2-(3-chlorophenyl)-N-(3,5-dichlorophenyl)-2-oxoacetohydrazonoyl cyanide] | – | > 300 | – | – |
| COc1ccc(C(=O)/C(C#N)=N/Nc2cc(Cl)cc(Cl)c2)cc1OC [ZL0631, (E)-N-(3,5-dichlorophenyl)-2-(3,4-dimethoxyphenyl)-2-oxoacetohydrazonoyl cyanide] | – | > 300 | – | – |
